The source of these data is patent US20240300943A1, “NOVEL SALTS OF HETEROCYCLIC COMPOUND AS PROTEIN KINASE INHIBITOR AND USES THEREOF” (HK INNO.N CORPORATION, priority 2021, published 2024).

Molecules are shown by their SMILES.

One data set deals with T1, JAK3 (Homo sapiens, UniProt P52333).
T1 sequence (P52333 1-1124): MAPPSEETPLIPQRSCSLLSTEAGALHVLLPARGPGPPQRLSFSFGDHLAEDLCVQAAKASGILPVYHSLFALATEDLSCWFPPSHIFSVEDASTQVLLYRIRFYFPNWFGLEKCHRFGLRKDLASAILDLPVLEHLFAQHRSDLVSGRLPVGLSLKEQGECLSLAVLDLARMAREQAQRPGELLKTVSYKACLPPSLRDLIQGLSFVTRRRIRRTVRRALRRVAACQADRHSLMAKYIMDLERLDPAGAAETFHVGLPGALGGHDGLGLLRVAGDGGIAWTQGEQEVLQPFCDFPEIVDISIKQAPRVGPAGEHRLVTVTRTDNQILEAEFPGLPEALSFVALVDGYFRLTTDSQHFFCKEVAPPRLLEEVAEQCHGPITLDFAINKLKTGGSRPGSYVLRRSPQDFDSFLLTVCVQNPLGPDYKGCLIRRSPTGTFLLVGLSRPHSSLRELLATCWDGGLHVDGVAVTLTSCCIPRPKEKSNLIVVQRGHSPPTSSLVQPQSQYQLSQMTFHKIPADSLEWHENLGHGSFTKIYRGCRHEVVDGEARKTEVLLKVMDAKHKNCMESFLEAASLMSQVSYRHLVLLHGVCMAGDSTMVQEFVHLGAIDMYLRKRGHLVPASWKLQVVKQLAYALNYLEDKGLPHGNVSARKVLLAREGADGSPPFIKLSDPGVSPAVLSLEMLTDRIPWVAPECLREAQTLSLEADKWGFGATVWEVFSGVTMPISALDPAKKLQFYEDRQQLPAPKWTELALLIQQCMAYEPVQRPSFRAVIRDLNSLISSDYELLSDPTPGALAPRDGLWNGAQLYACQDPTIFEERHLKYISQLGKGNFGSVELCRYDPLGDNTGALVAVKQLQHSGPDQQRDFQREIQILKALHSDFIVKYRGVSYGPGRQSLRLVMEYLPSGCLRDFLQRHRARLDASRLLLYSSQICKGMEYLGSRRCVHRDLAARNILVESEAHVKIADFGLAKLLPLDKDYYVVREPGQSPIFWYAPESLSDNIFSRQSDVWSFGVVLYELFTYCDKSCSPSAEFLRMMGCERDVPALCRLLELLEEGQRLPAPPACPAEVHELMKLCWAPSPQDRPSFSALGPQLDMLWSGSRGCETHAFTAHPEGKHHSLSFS
As to the kind of experiment: ADP-Glo JAK3 kinase assay. As to conditions: read-out: IC50, In vitro enzyme JAK3. The data set is classed as biochemical. On the procedure: 10 mM of Compound 1 was diluted in DMSO to prepare samples at four concentrations (50,000 nM, 5,000 nM, 500 nM and 50 nM). 10 mM of ATP was diluted at 1/40 in 1× kinase buffer to make a preparation. 1 mg/mL of Poly (Glu4, Tyr1) peptide was used as a stock solution. 100 ng/μL of JAK3 enzyme was diluted at 1/20 in 1× kinase buffer to make a preparation. 1 μL of ATP, 1 μL of Poly (Glu4, Tyr1) peptide, and 1 μL of Compound 1 prepared as above were mixed, after which 2 μL of JAK3 enzyme was finally added and reacted at 30° C. for 40 minutes. At this time, a tube without JAK3 enzyme was prepared as a blank and a tube without Compound 1 was prepared as a positive control group together (a final concentration of samples was 10,000 nM, 1,000 nM, 100 nM, and 10 nM).
Then, 5 μL of ADP-glo was added to each tube and reacted at 30° C. for 40 minutes, after which 10 μL of kinase detection reagent was added thereto and reacted at room temperature for 15 minutes. After 18 μL of the reactant was transferred to a 384 well plate, luminescence was measured using a plate reader.
(In general: In ADP-Glo the light output rises with the ADP produced.)

Data set [1] is described as follows: Hygroscopicity evaluation. In kind it is physicochemical. As to conditions: for Individual related material: in %. The text has this: Samples were placed in a glass desiccator in which relative humidity was adjusted to 33%, 53%, 75%, and 93%, and then stored for two and four weeks to be evaluated.

In the case of `C[C@@H]1CN(C(=O)CC#N)CC=C1c1cc(NC(=O)C2CC2)nc2[nH]ccc12` [Compound 1, (S)—N-(4-(1-(2-cyanoacetyl)-3-methyl-1,2,3,6-tetrahydropyridin-4-yl)-1H-pyrrolo[2,3-b]pyridin-6-yl)cyclopropanecarboxamide], the IC50 (usually the concentration that gives 50% inhibition) on JAK3 was determined as 315 nM.
For `C[C@@H]1CN(C(=O)CC#N)CC=C1c1cc(NC(=O)C2CC2)nc2[nH]ccc12` [Example 3, (S)—N-(4-(1-(2-cyanoacetyl)-3-methyl-1,2,3,6-tetrahydropyridin-4-yl)-1H-pyrrolo[2,3-b]pyridin-6-yl)cyclopropanecarboxamide], the Total related material in data set [1] (Initial) was 0.37%; in data set [1] (relative humidity 33%, 2 W), 0.43%; in data set [1] (relative humidity 33%, 4 W), 0.41%; in data set [1] (relative humidity 53%, 2 W) it was 0.43%; in data set [1] (relative humidity 53%, 4 W) it was 0.35%; in data set [1] (relative humidity 75%, 2 W), 0.44%. Also, the Total related material came out at 0.39% in data set [1] (relative humidity 75%, 4 W); 0.41% in data set [1] (relative humidity 93%, 2 W); 0.33% in data set [1] (relative humidity 93%, 4 W). The Water in data set [1] (Initial) is 0.61%; in data set [1] (relative humidity 33%, 2 W), 0.41%; in data set [1] (relative humidity 33%, 4 W), 0.53%; in data set [1] (relative humidity 53%, 2 W) it was 0.53%; in data set [1] (relative humidity 53%, 4 W) it was 0.66%; in data set [1] (relative humidity 75%, 2 W), 0.60%. In addition, the Water is on record as 0.81% in data set [1] (relative humidity 75%, 4 W); 1.17% in data set [1] (relative humidity 93%, 2 W); 0.97% in data set [1] (relative humidity 93%, 4 W). In addition, the Individual related material was found to be 0.07 in data set [1] (Initial); 0.07 in data set [1] (relative humidity 33%, 2 W); 0.08 in data set [1] (relative humidity 33%, 4 W); 0.08 in data set [1] (relative humidity 53%, 2 W); 0.07 in data set [1] (relative humidity 53%, 4 W); 0.08 in data set [1] (relative humidity 75%, 2 W). In addition, the Individual related material is 0.07 in data set [1] (relative humidity 75%, 4 W); 0.08 in data set [1] (relative humidity 93%, 2 W); 0.07 in data set [1] (relative humidity 93%, 4 W).
